From ChEMBL document CHEMBL4619804, “Target-Based Identification and Optimization of 5-Indazol-5-yl Pyridones as Toll-like Receptor 7 and 8 Antagonists Using a Biochemical TLR8 Antagonist Competition Assay” (J Med Chem, 2020) come the findings set out here.

Assay [1] deals with T1, Toll-like receptor 8 (Homo sapiens, UniProt Q9NR97).
T1 sequence (Q9NR97 whole entry): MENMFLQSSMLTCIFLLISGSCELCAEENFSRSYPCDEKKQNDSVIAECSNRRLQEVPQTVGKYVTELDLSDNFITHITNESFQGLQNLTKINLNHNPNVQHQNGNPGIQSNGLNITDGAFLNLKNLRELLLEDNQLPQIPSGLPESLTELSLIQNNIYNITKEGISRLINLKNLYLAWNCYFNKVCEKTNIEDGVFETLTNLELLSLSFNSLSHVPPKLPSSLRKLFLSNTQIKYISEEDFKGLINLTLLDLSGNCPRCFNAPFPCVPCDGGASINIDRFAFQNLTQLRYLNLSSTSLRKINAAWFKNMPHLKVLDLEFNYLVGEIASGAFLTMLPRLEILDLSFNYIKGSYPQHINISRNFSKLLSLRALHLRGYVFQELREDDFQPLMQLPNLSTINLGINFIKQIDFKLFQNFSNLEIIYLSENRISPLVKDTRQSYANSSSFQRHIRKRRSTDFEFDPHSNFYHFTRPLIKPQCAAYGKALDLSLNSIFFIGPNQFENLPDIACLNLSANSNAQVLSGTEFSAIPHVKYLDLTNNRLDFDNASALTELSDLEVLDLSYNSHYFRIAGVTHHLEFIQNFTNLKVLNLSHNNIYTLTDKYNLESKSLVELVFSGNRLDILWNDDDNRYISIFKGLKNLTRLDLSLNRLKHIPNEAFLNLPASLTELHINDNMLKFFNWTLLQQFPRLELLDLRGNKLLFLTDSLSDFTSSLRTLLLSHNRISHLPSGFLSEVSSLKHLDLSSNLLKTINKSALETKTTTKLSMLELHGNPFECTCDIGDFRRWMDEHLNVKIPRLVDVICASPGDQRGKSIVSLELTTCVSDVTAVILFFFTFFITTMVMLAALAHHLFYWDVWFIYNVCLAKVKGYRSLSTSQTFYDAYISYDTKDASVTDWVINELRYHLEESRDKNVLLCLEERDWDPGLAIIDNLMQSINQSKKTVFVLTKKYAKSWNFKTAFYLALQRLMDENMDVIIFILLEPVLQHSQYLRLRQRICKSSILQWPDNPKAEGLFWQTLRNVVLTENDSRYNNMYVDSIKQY
The assay is described as follows: biochemical.

A further assay concerns the target T2, Toll-like receptor 9 (Homo sapiens, UniProt Q9NR96).
T2 sequence (Q9NR96 whole entry): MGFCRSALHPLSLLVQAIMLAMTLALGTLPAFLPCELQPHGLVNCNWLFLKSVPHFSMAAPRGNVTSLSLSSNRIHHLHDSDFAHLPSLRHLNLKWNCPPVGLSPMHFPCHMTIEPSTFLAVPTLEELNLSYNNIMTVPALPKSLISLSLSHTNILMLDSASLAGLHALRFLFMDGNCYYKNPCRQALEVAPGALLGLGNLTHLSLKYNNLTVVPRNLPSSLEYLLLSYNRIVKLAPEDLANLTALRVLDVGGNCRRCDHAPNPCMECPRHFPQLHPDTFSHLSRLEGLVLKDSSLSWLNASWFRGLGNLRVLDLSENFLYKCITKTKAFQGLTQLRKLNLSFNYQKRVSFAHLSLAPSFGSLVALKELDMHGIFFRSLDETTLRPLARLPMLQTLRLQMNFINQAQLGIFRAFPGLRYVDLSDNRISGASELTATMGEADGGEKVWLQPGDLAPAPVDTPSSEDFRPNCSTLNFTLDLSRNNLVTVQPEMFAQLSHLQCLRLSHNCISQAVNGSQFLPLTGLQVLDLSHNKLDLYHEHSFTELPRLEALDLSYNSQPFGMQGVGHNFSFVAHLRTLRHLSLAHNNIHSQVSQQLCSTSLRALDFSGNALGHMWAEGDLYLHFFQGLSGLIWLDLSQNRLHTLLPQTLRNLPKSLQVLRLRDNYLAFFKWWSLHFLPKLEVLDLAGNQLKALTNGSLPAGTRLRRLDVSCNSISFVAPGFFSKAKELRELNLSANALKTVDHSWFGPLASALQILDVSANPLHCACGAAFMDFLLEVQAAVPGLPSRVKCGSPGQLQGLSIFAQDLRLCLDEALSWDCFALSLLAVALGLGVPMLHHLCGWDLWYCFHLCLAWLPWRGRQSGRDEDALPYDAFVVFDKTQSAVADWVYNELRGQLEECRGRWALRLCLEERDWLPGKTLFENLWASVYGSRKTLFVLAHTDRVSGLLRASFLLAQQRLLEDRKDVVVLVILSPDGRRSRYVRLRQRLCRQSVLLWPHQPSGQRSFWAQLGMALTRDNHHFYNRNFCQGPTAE
Briefly: Antagonist activity at TLR9 in human PBMC assessed as inhibition of ODN2216-induced IFNalpha production preincubated for 30 mins followed by ODN2216 addition and measured after 20 hrs by alphaLISA. Type of assay: cell-based. On the technique in general: Alpha assays give light when donor and acceptor beads are brought close together.

Another assay deals with T3, Toll-like receptor 7 (Homo sapiens, UniProt Q9NYK1).
T3 sequence (Q9NYK1 whole entry): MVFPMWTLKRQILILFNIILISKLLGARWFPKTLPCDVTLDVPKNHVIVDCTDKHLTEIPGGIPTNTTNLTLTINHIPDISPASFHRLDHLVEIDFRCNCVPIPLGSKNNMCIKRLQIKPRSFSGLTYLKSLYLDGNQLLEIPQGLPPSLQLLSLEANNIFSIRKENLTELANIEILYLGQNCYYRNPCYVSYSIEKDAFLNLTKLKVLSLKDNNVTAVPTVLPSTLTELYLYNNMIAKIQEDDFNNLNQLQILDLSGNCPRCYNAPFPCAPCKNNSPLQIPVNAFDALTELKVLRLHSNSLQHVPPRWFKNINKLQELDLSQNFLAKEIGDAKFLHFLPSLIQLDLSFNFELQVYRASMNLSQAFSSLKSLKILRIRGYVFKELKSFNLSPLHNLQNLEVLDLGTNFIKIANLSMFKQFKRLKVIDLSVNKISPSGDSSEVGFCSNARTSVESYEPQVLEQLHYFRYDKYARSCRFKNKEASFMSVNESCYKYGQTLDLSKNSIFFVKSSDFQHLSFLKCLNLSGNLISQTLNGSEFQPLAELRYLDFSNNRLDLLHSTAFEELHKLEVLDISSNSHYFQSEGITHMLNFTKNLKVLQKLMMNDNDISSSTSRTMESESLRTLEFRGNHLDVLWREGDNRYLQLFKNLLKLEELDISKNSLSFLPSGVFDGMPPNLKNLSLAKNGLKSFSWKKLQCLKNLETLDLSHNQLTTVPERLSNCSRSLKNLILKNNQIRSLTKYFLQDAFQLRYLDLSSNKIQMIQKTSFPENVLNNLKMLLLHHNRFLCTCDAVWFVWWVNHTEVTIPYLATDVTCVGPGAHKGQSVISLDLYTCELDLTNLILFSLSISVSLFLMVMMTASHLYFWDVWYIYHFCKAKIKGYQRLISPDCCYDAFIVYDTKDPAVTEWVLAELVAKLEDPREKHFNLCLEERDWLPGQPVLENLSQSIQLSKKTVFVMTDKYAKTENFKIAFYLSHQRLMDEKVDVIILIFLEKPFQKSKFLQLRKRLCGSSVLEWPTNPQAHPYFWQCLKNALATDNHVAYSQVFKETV
Briefly: Antagonist activity at TLR7 in human PBMC assessed as inhibition of DOTAP-ssRNA40 induced IFNalpha production preincubated for 30 mins followed by ssRNA40 addition measured after 20 hrs by alphaLISA. The format is cell-based.

A further assay has as its target Cytochrome P450 3A4 (Homo sapiens, UniProt P08684). Briefly: Inhibition of CYP3A4 (unknown origin). The format is ADME.
In another assay the target is Toll-like receptor 4 (Homo sapiens, UniProt O00206). The assay is described as follows: Antagonist activity at TLR4 in human PBMC assessed as inhibition of LPS-induced TNFalpha production preincubated for 30 mins followed by LPS addition and measured after 20 hrs by HTRF assay. Type of assay: cell-based. On the technique in general: In TR-FRET formats the signal depends on donor and acceptor labels being close together.
Sequence of Toll-like receptor 4 (O00206 whole entry): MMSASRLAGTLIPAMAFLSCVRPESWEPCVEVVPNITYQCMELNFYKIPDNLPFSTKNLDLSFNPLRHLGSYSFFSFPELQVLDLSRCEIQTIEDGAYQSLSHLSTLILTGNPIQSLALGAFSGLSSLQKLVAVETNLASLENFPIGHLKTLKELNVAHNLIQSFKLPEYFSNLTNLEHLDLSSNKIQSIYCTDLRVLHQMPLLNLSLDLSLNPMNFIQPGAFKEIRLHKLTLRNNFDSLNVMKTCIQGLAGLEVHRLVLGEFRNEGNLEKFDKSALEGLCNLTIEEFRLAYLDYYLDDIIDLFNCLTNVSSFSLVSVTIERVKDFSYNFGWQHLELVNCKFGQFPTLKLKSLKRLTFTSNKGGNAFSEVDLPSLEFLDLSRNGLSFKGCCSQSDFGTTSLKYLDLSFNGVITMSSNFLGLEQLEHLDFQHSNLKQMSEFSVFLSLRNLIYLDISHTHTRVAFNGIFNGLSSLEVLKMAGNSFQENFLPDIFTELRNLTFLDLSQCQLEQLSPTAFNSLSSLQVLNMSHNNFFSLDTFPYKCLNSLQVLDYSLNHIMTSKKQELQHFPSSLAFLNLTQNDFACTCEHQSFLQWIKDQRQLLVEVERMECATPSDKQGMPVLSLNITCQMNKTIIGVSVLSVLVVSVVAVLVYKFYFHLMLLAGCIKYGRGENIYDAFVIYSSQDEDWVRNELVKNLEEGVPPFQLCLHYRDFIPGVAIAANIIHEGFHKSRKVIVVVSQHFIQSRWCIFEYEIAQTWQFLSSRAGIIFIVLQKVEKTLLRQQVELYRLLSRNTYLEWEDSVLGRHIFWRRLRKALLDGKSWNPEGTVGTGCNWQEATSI

Assay [2] concerns the target T1, Toll-like receptor 8. Briefly: biochemical. This is another data set of the same source.
Description: Binding affinity to human TLR8 extracellular domain (27 to 827 residues) expressed in Drosophila S2 cells by fluorescence polarization assay

Sequence of Cytochrome P450 3A4 (P08684 whole entry): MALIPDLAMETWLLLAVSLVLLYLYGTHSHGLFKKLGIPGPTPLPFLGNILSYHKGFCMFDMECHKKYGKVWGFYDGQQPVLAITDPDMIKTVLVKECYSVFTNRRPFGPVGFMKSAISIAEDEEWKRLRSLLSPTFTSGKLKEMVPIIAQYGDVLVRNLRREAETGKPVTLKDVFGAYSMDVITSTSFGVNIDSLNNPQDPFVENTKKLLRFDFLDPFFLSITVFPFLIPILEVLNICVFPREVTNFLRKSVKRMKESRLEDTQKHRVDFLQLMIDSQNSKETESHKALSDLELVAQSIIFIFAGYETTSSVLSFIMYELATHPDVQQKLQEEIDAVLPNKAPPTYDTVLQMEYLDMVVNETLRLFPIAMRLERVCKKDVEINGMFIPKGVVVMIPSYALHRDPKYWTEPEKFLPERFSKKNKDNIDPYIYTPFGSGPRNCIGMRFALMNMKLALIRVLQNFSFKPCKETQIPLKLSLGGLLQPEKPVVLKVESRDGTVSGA

The compound `Cc1cc(-c2ccnc3[nH]ncc23)cnc1OCC12CCC(N)(CC1)CC2` had an IC50 against Toll-like receptor 8 [1] of 68 nM. In the case of `Cc1cc(-c2ccc(=O)n(C)c2)cc2cnc(N3CCN(C(C)C)CC3)nc12`, the concentration for half-maximal inhibition (IC50) on Toll-like receptor 9 and on Toll-like receptor 7 was above 10000 nM throughout.

For the compound `Cc1cc(-c2ccc(=O)n(C)c2)cc2cn(C3CCNCC3)nc12`, on Toll-like receptor 9, the IC50 was determined as 2000 nM. On to `Cc1cc(-c2ccc(=O)n(C)c2C)cc2cn(C3CCNCC3)nc12`, for which the IC50 is above 20000 nM at Cytochrome P450 3A4, above 10000 nM on Toll-like receptor 9 and above 10000 nM at Toll-like receptor 4. On to `Cc1cc(=O)n(C)cc1-c1cc(C)c2nn(C3CCNCC3)cc2c1`, for which the figures for the IC50 on Toll-like receptor 9 and at Toll-like receptor 4 were 7200 nM and above 4200 nM, respectively. For the compound `Cc1cc(-c2cc(C)c3nn(C4CCNCC4)cc3c2)cn(C)c1=O`, the IC50 at Toll-like receptor 9 came out at 200 nM. The compound `CC[N+]1=C(/C=C/C=C/C=C2/N(CCCCCC(=O)NC34CCC(COc5ncc(-c6ccnc7[nH]ncc67)cc5C)(CC3)CC4)c3ccc(S(=O)(=O)O)cc3C2(C)C)C(C)(C)c2cc(S(=O)(=O)O)ccc21` gave a Kd at Toll-like receptor 8 [2] of 65 nM.

In the case of `Cn1cc(-c2ccc3nc(N4CCN(C5CCC5)CC4)ncc3c2)ccc1=O`, the IC50 on Toll-like receptor 9 stood at 2200 nM.

In general, IC50 refers to the concentration that inhibits the measured activity by half. As a reminder, the Kd is the free concentration of one partner at which half of the binding sites on the other are occupied at equilibrium, for simple one-to-one binding.
